The numbers were not newly measured in patent US11730740B2, “Laureth-4 containing topical formulations” (ARCUTIS BIOTHERAPEUTICS, INC., priority 2020, dated 2023), which cites them from elsewhere.

In one data set the target is JAK 1 (Homo sapiens, UniProt P23458). As to conditions: statement in words.
For data set [1] the following is noted: 10% adjuvant in propylene glycol; infinite dosing 278 μl/cm^2; PG alone control 1.6±0.4.
For data set [2] the following is noted: 10% w/w surfactant in white petrolatum with 10% salicylic acid and 10% DMSO; 5.0 grams on 6.4×12.7 cm^2 skin; 8 hr.

Sequence of JAK 1 (P23458 whole entry, species assumed): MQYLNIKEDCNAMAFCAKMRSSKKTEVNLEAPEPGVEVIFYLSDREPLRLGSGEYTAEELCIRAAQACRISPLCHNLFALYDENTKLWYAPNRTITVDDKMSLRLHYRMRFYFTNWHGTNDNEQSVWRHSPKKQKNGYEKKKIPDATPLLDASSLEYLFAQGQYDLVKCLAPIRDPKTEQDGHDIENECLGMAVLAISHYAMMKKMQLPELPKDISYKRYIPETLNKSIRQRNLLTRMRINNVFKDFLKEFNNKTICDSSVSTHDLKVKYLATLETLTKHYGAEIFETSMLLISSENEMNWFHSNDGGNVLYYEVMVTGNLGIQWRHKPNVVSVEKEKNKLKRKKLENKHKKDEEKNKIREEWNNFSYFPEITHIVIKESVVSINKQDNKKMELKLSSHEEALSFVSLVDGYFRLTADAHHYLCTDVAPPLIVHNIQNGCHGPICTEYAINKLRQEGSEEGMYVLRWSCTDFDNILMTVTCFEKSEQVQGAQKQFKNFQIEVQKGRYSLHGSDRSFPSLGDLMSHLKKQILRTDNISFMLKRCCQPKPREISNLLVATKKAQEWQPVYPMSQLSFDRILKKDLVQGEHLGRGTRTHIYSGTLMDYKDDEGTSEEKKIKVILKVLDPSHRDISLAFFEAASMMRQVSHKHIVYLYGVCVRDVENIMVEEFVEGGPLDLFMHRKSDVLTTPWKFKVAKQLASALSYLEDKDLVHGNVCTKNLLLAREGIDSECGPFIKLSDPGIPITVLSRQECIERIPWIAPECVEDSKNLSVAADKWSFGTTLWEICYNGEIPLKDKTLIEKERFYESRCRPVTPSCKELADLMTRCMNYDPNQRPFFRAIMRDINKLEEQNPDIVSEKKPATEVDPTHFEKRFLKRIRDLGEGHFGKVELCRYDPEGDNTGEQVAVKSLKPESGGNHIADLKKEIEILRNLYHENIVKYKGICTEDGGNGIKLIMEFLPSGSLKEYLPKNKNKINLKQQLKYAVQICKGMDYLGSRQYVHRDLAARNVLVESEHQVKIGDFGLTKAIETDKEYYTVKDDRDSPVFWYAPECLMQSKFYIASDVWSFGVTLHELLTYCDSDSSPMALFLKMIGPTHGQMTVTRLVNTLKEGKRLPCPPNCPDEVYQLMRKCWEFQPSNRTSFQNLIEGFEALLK

Turning to `CCC[C@@H]1C[C@@H](C(=O)N[C@@H]([C@H]2O[C@H](SC)[C@H](OP(=O)(O)O)[C@@H](O)[C@H]2O)[C@H](C)Cl)N(C)C1` [Clindamycin phosphate], the solubility in water entry (without the addition of laureth-4) is reported as “readily soluble”.

Turning to `COc1nsc(NC(=O)N2C[C@H]3C[C@H](N(C)c4ncnc5[nH]ccc45)C[C@H]3C2)n1` [SHR0302, (3 aR,5 S,6aS)—N-(3-methoxyl-1,2,4-thiadiazol-5-yl)-5-(methyl(7H-pyrrolo[2,3-d]pyrimidin-4-yl)amino)hexahydrocyclopenta[c]pyrrole-2(1H)-carboxamide], on JAK 1, the “inhibition of JAK 1” value is reported as “potent” and the “selectivity for JAK1 over JAK2” value is given as “high”.

`CCCCCCCCCC(=O)O` [capric acid]: the naloxone flux in data set [1] was 187.9±67.5 μg/cm^2-hr.

Take `CCCCCCCCCCCCOCCOCCOCCOCCO` [laureth-4, tetraethylene glycol monododecyl ether]: the naloxone flux in data set [1] was 34.5±8.3 μg/cm^2-hr. In data set [2], the “percutaneous absorption of salicylic acid” value (from here on “percutaneous absorption”) is reported as “increased significantly”.

Turning to `CCCCCCCCCCCC(=O)O` [lauric acid], the naloxone flux in data set [1] is reported as 235.2 μg/cm^2-hr.

Take `CCCCCCCCCCCCO` [lauryl alcohol]: the naloxone flux in data set [1] is listed as 45.8 μg/cm^2-hr.

Regarding `CC/C=C\C/C=C\C/C=C\CCCCCCCC(=O)O` [linolenic acid 18:2, linolenic acid], the naloxone flux in data set [1] is given as 103.0 μg/cm^2-hr.

`CC/C=C\C/C=C\C/C=C\CCCCCCCCO` [linolenyl alcohol]: the naloxone flux in data set [1] was 116.3 μg/cm^2-hr.

On to `CCCCCCCCC(=O)O` [pelargonic acid], for which the naloxone flux in data set [1] is 201.9±65.4 μg/cm^2-hr.

Consider `CC1=C(/C=C/C(C)=C/C=C/C(C)=C/C(=O)O)C(C)(C)CCC1` [tretinoin], for which, under “with laureth-4 (3%) and propylene glycol”, the “solubility of tretinoin in VELTIN Gel” value is listed as 0.025%.

As for polyoxyethylene 2 oleyl ether, the “percutaneous absorption” value in data set [2] is given as “increased significantly”.

For the molecule propylene glycol laurate, the naloxone flux in data set [1] is 43.8±5.5 μg/cm^2-hr.

In the case of sorbitan monopalmitate, the “percutaneous absorption” value in data set [2] is “increased significantly”.

As to sorbitan trioleate, the “percutaneous absorption” value in data set [2] was “increased significantly”.
